For 36 molecules, IC50 and solubility results are on record in patent US20220411388A1, “SUBSTITUTED IMIDAZOLE CARBOXAMIDES AND THEIR USE IN THE TREATMENT OF MEDICAL DISORDERS” (Bial - R&D Investments, S.A., priority 2019, published 2022).

One data set deals with T1, acid ceramidase (hACR) (Homo sapiens, UniProt Q13510).
T1 construct: expressed in transfected cells
T1 sequence (Q13510 22-395): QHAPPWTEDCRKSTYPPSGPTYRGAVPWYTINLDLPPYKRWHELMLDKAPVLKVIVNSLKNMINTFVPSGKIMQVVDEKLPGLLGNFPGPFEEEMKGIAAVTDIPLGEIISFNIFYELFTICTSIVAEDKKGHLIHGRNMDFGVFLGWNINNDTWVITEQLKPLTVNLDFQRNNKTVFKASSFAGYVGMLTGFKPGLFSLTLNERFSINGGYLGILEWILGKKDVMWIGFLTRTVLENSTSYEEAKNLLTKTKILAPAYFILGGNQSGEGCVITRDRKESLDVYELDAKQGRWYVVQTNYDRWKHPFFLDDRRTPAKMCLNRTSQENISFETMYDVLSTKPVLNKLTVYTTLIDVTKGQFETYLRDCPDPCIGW
As to the kind of experiment: Acid ceramidase inhibition, biochemical fluorescent assay with cell lysates overexpressing acid ceramidase (substrate Rbm14-12). The conditions noted are these: cell lysate, 1 hr preincubation at RT, pH 4.5, Rbm14-12 6.3 μM; read-out: IC50 hACR. The method, then:
The ability of exemplary compounds to inhibit acid ceramidase was measured.
Cell lysates overexpressing acid ceramidase were used as the enzyme source for compound potency determination in a biochemical fluorescent assay. Briefly, compounds were preincubated with 10 μg protein of cell lysates in a dose-response manner for 1 hr at RT in the assay buffer containing 25 mM NaAC and 100 mM NaCl, pH 4.5. […] The samples were incubated with the stopping buffer at RT for 1 hr to allow the fluorescent product to be formed. […] Data were collected and used to determine the IC50 values of compounds by curve fitting to the four-parameter inhibition equation.

The nature of data set [1]: Compound solubility in water. The class given is physicochemical.

≈ marks a conversion by molar mass, not a printed value.

Turning to `COc1nc(C2CCCC2)cn1C(=O)NCCCOc1ccccc1` [Example 105, 4-Cyclopentyl-2-methoxy-N-(3-phenoxypropyl)-1H-imidazole-1-carboxamide], the 50% inhibitory concentration (IC50) (usually the midpoint of a concentration-inhibition curve) on acid ceramidase (hACR) was below 200 nM. Besides, the solubility (commonly the dissolved amount per volume that the medium holds) in data set [1] stood at 14 µg/mL (≈ 40.8 µM).
As for `CC(C)Oc1nc(Cl)cn1C(=O)NCCCC(F)(F)F` [Example 187, 4-Chloro-2-isopropoxy-N-(4,4,4-trifluorobutyl)-1H-imidazole-1-carboxamide], on acid ceramidase (hACR), the IC50 lay in the range of 200 to 1000 nM. Also, the concentration in solution in data set [1] (solubility) was 29 µg/mL (≈ 92.4 µM).
The like results for `CC(C)c1ccc(-c2cn(C(=O)NCCc3ccccc3)cn2)cn1` [Example 43, 4-(6-iso-Propylpyridin-3-yl)-N-phenethyl-1H-imidazole-1-carboxamide] were, in that order, below 200 nM and 0.8 µg/mL (≈ 2.39 µM).
The like results for `Cc1cn(C(=O)NC2CC2)c(Oc2ccccc2)n1` [Example 147, N-Cyclopropyl-4-methyl-2-phenoxy-1H-imidazole-1-carboxamide] were, in that order, below 200 nM and 29 µg/mL (≈ 113 µM).
In the same order, the values of `Cc1cn(C(=O)NCCCC2(C(F)(F)F)CC2)c(OCCN2CCN(C)CC2)n1` [Example 200, 4-Methyl-2-(2-(4-methylpiperazin-1-yl)ethoxy)-N-(3-(1-(trifluoromethyl)cyclopropyl)propyl)-1H-imidazole-1-carboxamide] are below 200 nM and 49 µg/mL (≈ 117 µM).
Turning to `CCOc1nc(-c2cccnc2)cn1C(=O)NCCC1CC1` [Example 64, N-(2-Cyclopropylethyl)-2-ethoxy-4-(pyridin-3-yl)-1H-imidazole-1-carboxamide], the IC50 at acid ceramidase (hACR) is above 1000 nM. In addition, the solubility in data set [1] worked out at 16.8 µg/mL (≈ 55.9 µM).
In the same order, the values of `O=C(NCc1ccccc1)n1cnc(-c2cccnc2)c1` [Example 42] are 200 to 1000 nM and 13.6 µg/mL (≈ 48.9 µM).
For `COc1nc(C(C)(C)C)cn1C(=O)NC1CCOCC1` [Example 114, 4-(tert-Butyl)-2-methoxy-N-(tetrahydro-2H-pyran-4-yl)-1H-imidazole-1-carboxamide], the IC50 on acid ceramidase (hACR) is 200 to 1000 nM. The molecule also showed a solubility in data set [1] of 29 µg/mL (≈ 103 µM).
In the same order, the values of `CC(C)CCNC(=O)n1cnc(-c2ccncc2)c1` [Example 41, N-iso-Pentyl-4-(pyridin-4-yl)-1H-imidazole-1-carboxamide] are above 1000 nM and 22.1 µg/mL (≈ 85.6 µM).
The like results for `CC(C)CCNC(=O)n1cc(C(C)(C)C)nc1Oc1ccc(F)cc1` [Example 116, 4-tert-Butyl-2-(4-fluorophenoxy)-N-iso-pentyl-1H-imidazole-1-carboxamide] were, in that order, below 200 nM and 1 µg/mL (≈ 2.88 µM).
For `COc1nc(Cl)cn1C(=O)NCC#CC(C)C` [Example 186, 4-Chloro-2-methoxy-N-(4-methylpent-2-yn-1-yl)-1H-imidazole-1-carboxamide], the IC50 at acid ceramidase (hACR) was 200 to 1000 nM.
Turning to `COc1nc(C2CCCC2)cn1C(=O)NCCC(C)C` [Example 75, 4-Cyclopentyl-N-iso-pentyl-2-methoxy-1H-imidazole-1-carboxamide], the IC50 on acid ceramidase (hACR) was 200 to 1000 nM. The same molecule came in with a solubility in data set [1] of 13 µg/mL (≈ 46.5 µM).
For the molecule `CN1CCN(CCOc2nc(-c3ccccc3)cn2C(=O)NCC#Cc2ccccc2)CC1` [Example 202], the IC50 on acid ceramidase (hACR) was below 200 nM. Further, the solubility in data set [1] was found to be 7 µg/mL (≈ 15.8 µM).
In the same order, the values of `Cc1cn(C(=O)NCCCC(F)(F)F)c(Oc2ccccc2)n1` [Example 171, 4-Methyl-2-phenoxy-N-(4,4,4-trifluorobutyl)-1H-imidazole-1-carboxamide] are below 200 nM and 24 µg/mL (≈ 73.3 µM).
In the same order, the values of `Cc1cn(C(=O)NCCc2ccccc2)c(OCCN2CCOCC2)n1` [Example 159, 4-Methyl-2-(2-morpholinoethoxy)-N-phenethyl-1H-imidazole-1-carboxamide] are below 200 nM and 35 µg/mL (≈ 97.6 µM).
`O=C(NCCCC1CC1)n1cnc(-c2cccnc2)c1` [Example 32, N-(3-Cyclopropylpropyl)-4-(pyridin-3-yl)-1H-imidazole-1-carboxamide]: at acid ceramidase (hACR), the IC50 fell in the range of 200 to 1000 nM. In data set [1], this molecule had a solubility of 27.6 µg/mL (≈ 102 µM).
The like results for `CC(C)CNC(=O)n1cnc(-c2cccnc2)c1` [Example 35, N-iso-Butyl-4-(pyridin-3-yl)-1H-imidazole-1-carboxamide] were, in that order, above 1000 nM and 19.1 µg/mL (≈ 78.2 µM).
The like results for `COc1nc(C(C)(C)C)cn1C(=O)NCCC(C)C` [Example 57, 4-(tert-Butyl)-N-isopentyl-2-methoxy-1H-imidazole-1-carboxamide] were, in that order, 200 to 1000 nM and 13.3 µg/mL (≈ 49.7 µM).
The like results for `COc1nc(Cl)cn1C(=O)NC1CC1` [Example 189, 4-Chloro-N-cyclopropyl-2-methoxy-1H-imidazole-1-carboxamide] were, in that order, above 1000 nM and 26 µg/mL (≈ 121 µM).
Regarding `COc1nc(Br)cn1C(=O)NCCCC(F)(F)F` [Example 184, 4-Bromo-2-methoxy-N-(4,4,4-trifluorobutyl)-1H-imidazole-1-carboxamide], on acid ceramidase (hACR), the 50% inhibitory concentration (IC50) is below 200 nM. This molecule returned a solubility in data set [1] of 31 µg/mL (≈ 93.9 µM).
As to `CN1CCN(c2ncccc2-c2cn(C(=O)NCCCC3(C(F)(F)F)CC3)cn2)CC1` [Example 176, 4-(2-(4-Methylpiperazin-1-yl)pyridin-3-yl)-N-(3-(1-(trifluoromethyl)cyclopropyl)propyl)-1H-imidazole-1-carboxamide], in data set [1], the solubility was determined as 29 µg/mL (≈ 66.4 µM).
`O=C(NCCc1ccccc1)n1cnc(-c2ccccc2)c1` [Example 2, N-Phenethyl-4-phenyl-1H-imidazole-1-carboxamide]: the IC50 at acid ceramidase (hACR) was below 200 nM. Moreover, the solubility in data set [1] was 0.2 µg/mL (≈ 0.686 µM).
As for `Cc1nc(-c2ccccc2)cn1C(=O)NCCc1ccccc1` [Example 7, 2-Methyl-N-phenethyl-4-phenyl-1H-imidazole-1-carboxamide], the IC50 on acid ceramidase (hACR) is below 200 nM. Also, in data set [1], the solubility is 1.1 µg/mL (≈ 3.6 µM).
The like results for `Cc1cn(C(=O)NC2CCC(F)(F)CC2)c(Oc2cccc(C#N)c2)n1` [Example 164, 2-(3-Cyanophenoxy)-N-(4,4-difluorocyclohexyl)-4-methyl-1H-imidazole-1-carboxamide] were, in that order, below 200 nM and 8 µg/mL (≈ 22.2 µM).
In the same order, the values of `COc1nc(C)cn1C(=O)NCCCc1ccccc1` [Example 141, 2-Methoxy-4-methyl-N-(3-phenylpropyl)-1H-imidazole-1-carboxamide] are below 200 nM and 24 µg/mL (≈ 87.8 µM).
In the same order, the values of `COc1nc(C(C)(C)C)cn1C(=O)NCCCc1ccccc1` [Example 101, 4-(tert-Butyl)-2-methoxy-N-(3-phenylpropyl)-1H-imidazole-1-carboxamide] are below 200 nM and 10 µg/mL (≈ 31.7 µM).
Take `COc1nc(Cl)cn1C(=O)NCCCC(F)(F)F` [Example 168, 4-Chloro-2-methoxy-N-(4,4,4-trifluorobutyl)-1H-imidazole-1-carboxamide]: on acid ceramidase (hACR), the IC50 is below 200 nM. In data set [1], this molecule came in with a solubility of 34 µg/mL (≈ 119 µM).
In the same order, the values of `O=C(NCCCC(F)(F)F)n1ccnc1Oc1ccccc1` [Example 178, 2-Phenoxy-N-(4,4,4-trifluorobutyl)-1H-imidazole-1-carboxamide] are below 200 nM and 32 µg/mL (≈ 102 µM).
Consider `O=C(NCCC1CC1)n1cnc(-c2cscn2)c1` [Example 69, N-(2-Cyclopropylethyl)-4-(thiazol-4-yl)-1H-imidazole-1-carboxamide], for which the IC50 at acid ceramidase (hACR) is 200 to 1000 nM. Besides, the concentration in solution in data set [1] (solubility) was 32 µg/mL (≈ 122 µM).
In the same order, the values of `CC(CCNC(=O)n1cnc(-c2cccnc2)c1)c1ccccc1` (stereo not shown) [Example 16, N-(3-Phenylbutyl)-4-(pyridin-3-yl)-1H-imidazole-1-carboxamide] are below 200 nM and 3.8 µg/mL (≈ 11.9 µM).
The like results for `COc1nc(C2CC2)cn1C(=O)NCCC(C)C` [Example 127, 4-Cyclopropyl-N-iso-pentyl-2-methoxy-1H-imidazole-1-carboxamide] were, in that order, above 1000 nM and 23 µg/mL (≈ 91.5 µM).
The like results for `COc1nc(C2CCCC2)cn1C(=O)NC1CC1` [Example 126, 4-Cyclopentyl-N-cyclopropyl-2-methoxy-1H-imidazole-1-carboxamide] were, in that order, 200 to 1000 nM and 13 µg/mL (≈ 52.1 µM).
Consider `COc1nccn1C(=O)NCCCCC1(C(F)(F)F)CC1` [Example 138, 2-Methoxy-N-(4-(1-(trifluoromethyl)cyclopropyl)butyl)-1H-imidazole-1-carboxamide], for which the half-maximal inhibitory concentration (IC50) on acid ceramidase (hACR) was below 200 nM. This molecule also registered a solubility in data set [1] of 27 µg/mL (≈ 88.4 µM).
In the same order, the values of `COc1nc(-c2coc(C(C)(C)C)n2)cn1C(=O)NCCC1CC1` [Example 103, 4-(2-(tert-Butyl)oxazol-4-yl)-N-(2-cyclopropylethyl)-2-methoxy-1H-imidazole-1-carboxamide] are above 1000 nM and 6 µg/mL (≈ 18.1 µM).
In the same order, the values of `O=C(NCCC1CCCC1(F)F)n1cc(Cl)nc1OCCN1CCOCC1` (stereo not shown) [Example 191, 4-Chloro-N-(2-(2,2-difluorocyclopentyl)ethyl)-2-(2-morpholinoethoxy)-1H-imidazole-1-carboxamide] are 200 to 1000 nM and 33 µg/mL (≈ 81.1 µM).
In the same order, the values of `CC(CNC(=O)n1cnc(-c2cccnc2)c1)Cc1ccccc1` (stereo not shown) [Example 15, N-(2-Methyl-3-phenylpropyl)-4-(pyridin-3-yl)-1H-imidazole-1-carboxamide] are below 200 nM and 16.1 µg/mL (≈ 50.3 µM).
